Where no end group is shown, it is not given here.

In one data set the test system is human red blood cells. Conditions: for MHC, minimal hemolytic concentration: lowest concentration showing 5% or more hemolysis, 1–64 μg/mL, A550, relative to 0.2% Triton X-100, triplicate.
Data set [1] relates to Escherichia coli ATCC 25922. The experiment in a line: microbe, parasite or virus in culture. Type of data set: cell-based. To be noted: Gram-negative; broth microdilution, Luria-Bertani broth, 1–64 μg/mL two-fold serial dilutions; triplicate. As to the method: (§1) The antimicrobial activity of each peptide was assessed against four strains, including two Gram-positive (Bacillus subtilis ATCC 6633 and Staphylococcus aureus ATCC 6538p) and two Gram-negative bacteria (Escherichia coli ATCC 25922 and Shigella dysentariae ATCC 9752) cultured in Luria-Bertani broth media. Antibacterial susceptibility was determined as the MIC value, which was measured using the standard broth microdilution method as described previously. […] Two conventional antibiotics, ampicillin and kanamycin, were used as controls to confirm antibiotic susceptibility. The tests were performed in triplicate, and the MIC values that were reproduced twice or thrice in the three independent measurements were employed to calculate the GM value.
(Broth dilution looks for growth in wells or tubes with falling amounts of substance.)

Data set [2] has as its system Staphylococcus aureus ATCC 6538p. In words: microbe, parasite or virus in culture. Type of data set: cell-based. To be noted: Gram-positive; broth microdilution, Luria-Bertani broth, 1–64 μg/mL two-fold serial dilutions; triplicate. As to the method: as §1
The test system of data set [3] is Bacillus subtilis ATCC 6633. The experiment in a line: microbe, parasite or virus in culture. Type of data set: cell-based. Conditions: Gram-positive; broth microdilution, Luria-Bertani broth, 1–64 μg/mL two-fold serial dilutions; lowest concentration that completely inhibited growth; triplicate. As to the method:
as §1

The test system of data set [4] is Shigella dysentariae ATCC 9752. In words: microbe, parasite or virus in culture. Type of data set: cell-based. Conditions: Gram-negative; broth microdilution, Luria-Bertani broth, 1–64 μg/mL two-fold serial dilutions; triplicate. The procedure: as §1
Data set [5] deals with two Gram-positive and two Gram-negative bacterial strains. The experiment in a line: Antimicrobial assay, MICs over the four strains (geometric mean). Type of data set: cell-based, B. subtilis, S. aureus, E. coli, S. dysentariae. To be noted: for GM, geometric mean of MICs: geometric mean of the MICs against the four strains. The procedure: as §1
Data set [6] deals with LPS-stimulated RAW264.7 cells. In words: Nitric oxide (NO) production, Griess reaction assay. Conditions: LPS 100 ng/mL 16 h, compared with omiganan and WALK155.03 (8 μM). Type of data set: cell-based, murine. As to the method: (§2) The macrophage cells were seeded (3 × 10^4 cells/well) and incubated in 96-well plates for 24 h, followed by pretreatments with the WALK peptides at designated concentrations for 5 min and subsequent stimulation with 100 ng/mL of LPS for 16 h. The nitrite concentration in the culture medium was determined using the Griess reaction assay. Briefly, the culture supernatant (100 μL) was mixed with an equal volume of Griess reagent (1% sulfanilamide, 0.1% N-1-naphthyl ethylenediamine) and incubated for 5 min. The absorbance of the resulting chromophoric azo-derivative molecules was measured at 550 nm using a microplate reader with a fresh culture medium as a blank. The amount of nitrite in each sample was determined using a standard curve generated using a range of dilutions of sodium nitrite solutions.
A general note: The Griess reaction detects nitrite, a stable product of nitric oxide.

The subject of a further data set is RAW264.7 cells. Conditions: at the concentrations tested, 16 h.
In data set [7] the test system is iNOS, COX-2 and pro-IL-1β in LPS-stimulated RAW264.7 cells. In words: Immunoblot analysis of pro-inflammatory mediators. Type of data set: cell-based, murine. To be noted: peptide pretreatment 5 min, LPS 100 ng/mL 16 h, Western blot. The procedure:
(§3) Figure 5 Anti-inflammatory effects of WALK244.04 peptide in Raw264.7 cells. The cells were pretreated with the peptide at indicated concentrations for 5 min, followed by stimulation with LPS (100 ng/mL) to induce inflammatory responses. (A) iNOS, COX-2, and pro-IL-1β expression levels were estimated by Western blot analysis after 16 h of LPS treatment. (B) The mRNA expression of IL-1β, IL-6, and TNF-α was determined by quantitative real-time PCR upon 3 h of stimulation with LPS. […] (C) The phosphorylation of STAT1 and TBK1 was examined by Western blot analysis at different time points after the LPS treatment.
as §3, with “Figure 6” for “Figure 5”, “of WALK243.04” for “of WALK244.04”, “PCR after” for “PCR upon”, “was analyzed” for “was examined”, “after” for “after the”
The cells were lysed using a RIPA buffer (iNtRON) containing protease and phosphatase inhibitor cocktails. The cell lysates were resolved using 10% SDS-PAGE and transferred to nitrocellulose membranes, which were blocked for 1 h at room temperature (approximately 23 °C) using phosphate-buffered saline with 0.01% Tween-20 (PBST, Merck Korea, Seoul, Korea) containing 10% fat-free dried milk. The blocked membranes were then incubated overnight with primary antibodies at 4 °C, followed by further incubation with horseradish peroxidase-conjugated secondary antibodies for 1 h at room temperature. The membranes were developed using the enhanced chemiluminescence (ECL) detection kit (Advansta, San Jose, CA, USA) and visualized using a luminescent image analyzer (Amersham imager 680, Cytiva Korea, Incheon, Korea).

Data set [8] relates to LPS-stimulated J774A.1 cells. In words: Nitric oxide (NO) production, Griess reaction assay. Type of data set: cell-based, murine. Conditions: LPS 100 ng/mL 16 h. The procedure:
NT, non-treated; LPS, lipopolysaccharides. (A) Cytotoxicity was assessed using the MTT assay. […] (B) Anti-inflammatory potential deduced by NO assay.
as §2

Data set [9] deals with IL-1β, IL-6 and TNF-α mRNA in LPS-stimulated RAW264.7 cells. In words: Quantitative real-time PCR of pro-inflammatory cytokines. Conditions: LPS 100 ng/mL 3 h, real-time qPCR. Type of data set: cell-based, murine. As to the method:
as §3
Figure 6 Anti-inflammatory effects of WALK243.04 peptide in Raw264.7 cells. […] (B) The mRNA expression of IL-1β, IL-6, and TNF-α was determined by quantitative real-time PCR after 3 h of stimulation with LPS. […] (C) The phosphorylation of STAT1 and TBK1 was analyzed by Western blot analysis at different time points after LPS treatment.
The cells were stimulated with LPS (100 ng/mL) for 3 h in the presence or absence of peptide samples, and the total RNA was extracted using a HiGene™ Total RNA Prep Kit (BIOFACT, Daejeon, Korea). cDNA was synthesized from 500 ng of total RNA using a SuperiorScript III cDNA synthesis kit (Enzynomics, Daejeon, Korea). […] The resulting 2^−ΔΔCt value for each group was used to calculate the relative expression ratio of the detected mRNA.
On the technique in general: Quantitative PCR measures a nucleic acid by following its amplification.

The test system of another data set is J774A.1 cells. To be noted: peptides 8, 4 and 2 μM, 16 h.
The test system of data set [10] is phosphorylation of STAT1 and TBK1 in LPS-stimulated RAW264.7 cells. In words: Immunoblot analysis of TRIF-dependent signaling. Type of data set: cell-based, murine. To be noted: Western blot. As to the method:
as §3
TRIF-dependent signaling, which is triggered by association with internalized TLR4 upon stimulation by LPS, is known to be mediated by the phosphorylation of the downstream kinase TANK binding kinase-1 (TBK-1) to produce type-I interferons. These interferons induce the expression of downstream target genes via the phosphorylation of the transcription factor signal transducer and the activator of transcription-1 (STAT-1).
The cells were lysed using a RIPA buffer (iNtRON) containing protease and phosphatase inhibitor cocktails. […]

Setting [11] is: human red blood cells 10% v/v in PBS, 1 h.

Procedure for human red blood cells: Briefly, suspensions of human red blood cells (10% v/v in PBS) were treated for 1 h with various concentrations (1–64 μg/mL, two-fold serial dilutions) of peptides, followed by measurement of the absorbance of the supernatant at 550 nm. The relative attenuation was determined as the percentage of hemolysis compared to that of the blood suspension treated with 0.2% Triton X-100. The tests were performed in triplicate, and the average values of three independent measurements were recorded.

Turning to LLKWLKKWL-NH2 [WALK243.04], the “MHC, minimal hemolytic concentration” value in the data set on human red blood cells (setting [11]) turned out to be 64 µg/mL. In [1], the “MIC, E. coli” value was determined as 4 µg/mL. The “MIC, S. aureus” value in data set [2] was found to be 4 µg/mL. For the same substance, the “MIC, B. subtilis” value in data set [3] stood at 4 µg/mL. Besides, in [4], the “MIC, S. dysentariae” value worked out at 4 µg/mL. Moreover, the “GM, geometric mean of MICs” value in data set [5] was 4.0 µg/mL. In addition, the NO inhibitory activity entry in [6] was “superior NO inhibition compared to other positive controls”. Besides, the “cytotoxicity (MTT assay)” value in the data set on RAW264.7 cells was “did not demonstrate significant cytotoxicity”. In addition, in data set [7], the “COX-2 and pro-IL-1β expression” value was “less potent or weaker than those of WALK244.04”; the iNOS expression result is reported as “less potent or weaker than those of WALK244.04”.

With KWLLKWLLK-NH2 [WALK243.02], the percentage hemolysis in the data set with human red blood cells (at 64 μg/mL, human red blood cells 10% v/v in PBS, 1 h, relative to 0.2% Triton X-100, average of three measurements) is listed as 6.7%. Besides, the “MHC, minimal hemolytic concentration” value in the data set on human red blood cells (setting [11]) stood at 64 µg/mL. In addition, in [1], the “MIC, E. coli” value is 4 µg/mL. In addition, in data set [2], the “MIC, S. aureus” value turned out to be 4 µg/mL. Besides, the “MIC, B. subtilis” value in data set [3] is 4 µg/mL. Besides, in data set [4], the “MIC, S. dysentariae” value is 16 µg/mL. Besides, in data set [5], the “GM, geometric mean of MICs” value amounted to 5.7 µg/mL. Besides, the “cytotoxicity (MTT assay)” value in the data set on RAW264.7 cells is recorded as “did not demonstrate significant cytotoxicity”.

Take LLKWLKKWLK-NH2 [WALK244.04]: in the data set with human red blood cells (at concentrations under 64 μg/mL, human erythrocytes), the hemolytic activity entry is recorded as “no significant hemolytic activity”. Further, in the data set on human red blood cells (setting [11]), the “MHC, minimal hemolytic concentration” value came to 64 µg/mL. In data set [1], the “MIC, E. coli” value stood at 4 µg/mL. The “MIC, S. aureus” value in data set [2] was determined as 4 µg/mL. Moreover, the “MIC, B. subtilis” value in data set [3] was 4 µg/mL. The “MIC, S. dysentariae” value in [4] came out at 8 µg/mL. In addition, the “MIC values against the strains tested” value in [5] (against both Gram-positive and Gram-negative bacterial strains, summary) is given as “approximately 4 μg/mL”. Besides, the “GM, geometric mean of MICs” value in [5] came out at 4.8 µg/mL. Further, the NO inhibitory activity result in data set [6] was “most potent NO inhibitory activity”. Further, the “NO inhibition at 8 μM” value in data set [8] (peptide 8 μM) is recorded as “near-complete NO inhibition”. Moreover, in data set [8] (peptides 8, 4 and 2 μM, pretreatment 5 min, nitrite by Griess), the “inhibitory effect against NO production” value is listed as “dose-dependent inhibitory effect”. Moreover, the “mRNA expression of IL-1β, IL-6 and TNF-α” value in data set [9] is “effectively suppressed”. In data set [7], the “COX-2 and pro-IL-1β expression” value was “downregulation”; the iNOS expression result is “substantial downregulation”. Moreover, the “cytotoxicity (MTT assay)” value in the data set on J774A.1 cells is “no significant cytotoxicity”. In addition, in data set [10] (after 1 h of LPS treatment), the TBK-1 phosphorylation result is on record as “attenuated”. Also, in data set [10] (after 4 h of LPS treatment), the STAT-1 phosphorylation entry is on record as “strong inhibition”.
